Measurements from patent US10597388B2, “Pyridazinone herbicides” (FMC CORPORATION, priority 2014, dated 2020).

Assays:
Assay in all cases: Test C greenhouse herbicide test, pre- and postemergence
Type in all cases: in vivo
[1] = test system: galium (catchweed bedstraw, Galium aparine)
Method in brief: (§1)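 Each species was treated both before emergence, in a loam–sand soil mix, and after emergence, as 1- to 4-leaf seedlings in peat-based potting medium. Plants stayed in the greenhouse 13 to 15 d, then were scored from 0 (no effect) to 100 (complete control) relative to controls.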

[2] = test system: lambsquarters (Chenopodium album)
Method in brief: as §1

[3] = test system: foxtail, giant (giant foxtail, Setaria faberii)
Method in brief: as §1

[4] = test system: crabgrass, large (large crabgrass, Digitaria sanguinalis)
Method in brief: as §1

[5] = test system: barnyardgrass (Echinochloa crus-galli)
Method in brief: as §1

[6] = test system: wheat (winter wheat, Triticum aestivum)
Method in brief: as §1

[7] = test system: nutsedge, yellow (yellow nutsedge, Cyperus esculentus)
Method in brief: as §1

soybean (Glycine max) = test system: soybean (Glycine max)
Method in brief: as §1

[8] = test system: ragweed (common ragweed, Ambrosia elatior)
Method in brief: as §1

[9] = test system: waterhemp (common waterhemp, Amaranthus rudis)
Method in brief: as §1

[10] = test system: johnsongrass (Sorghum halepense)
Method in brief: as §1

[11] = test system: oilseed rape (Brassica napus)
Method in brief: as §1

[12] = Postemergence, 31 g ai/ha, 0 to 100 scale (0 no effect, 100 complete control)
[13] = Postemergence, 125 g ai/ha, scale 0 to 100, 0 is no effect, 100 is complete control
[14] = Postemergence, 250 g ai/ha, scale 0 to 100, 0 no effect, 100 complete control, 13 to 15 d
[15] = Preemergence, 31 g ai/ha, scale 0 to 100, 0 is no effect, 100 is complete control
[16] = Preemergence, 62 g ai/ha, scale 0 to 100, 0 is no effect, 100 is complete control
[17] = Preemergence, 125 g ai/ha, scale 0 to 100, 0 is no effect, 100 is complete control
[18] = Preemergence, 250 g ai/ha, scale 0 to 100, 0 no effect, 100 complete control
[19] = postemergence, 62 g ai/ha, scale 0 to 100, 0 no effect, 100 complete control

Cc1cc(C)c2sc(C)c(-c3c(O)c(C)nn(C)c3=O)c2c1 [Compound 2, 5-hydroxy-2,6-dimethyl-4-(2,5,7-trimethylbenzo[b]thien-3-yl)-3(2H)-pyridazinone]
15: Plant response rating, Crabgrass, Large [4, 13] | Crabgrass, Large plant response rating [4, 19] | Plant response rating, Barnyardgrass [5, 13]
75: Plant response rating, Oilseed Rape [11, 14]
20: Foxtail, Giant plant response rating [3, 12] | Plant response rating, Barnyardgrass [5, 14] | Plant response rating, Oilseed Rape [11, 16]
10: Crabgrass, Large plant response rating [4, 12] | Plant response rating, Crabgrass, Large [4, 14] | Barnyardgrass plant response rating [5, 12] | Barnyardgrass plant response rating [5, 19] | Wheat plant response rating [6, 18]
90: Plant response rating, Foxtail, Giant [3, 13]
80: Plant response rating, Foxtail, Giant [3, 15] | Nutsedge, Yellow plant response rating [7, 12] | Ragweed plant response rating [8, 12] | Ragweed plant response rating [8, 19]
5: Plant response rating, Wheat [6, 13] | Plant response rating, Wheat [6, 14] | Plant response rating, Soybean (soybean (Glycine max); [14]) | Johnsongrass plant response rating [10, 12] | Plant response rating, Johnsongrass [10, 13] | Plant response rating, Johnsongrass [10, 14] | Plant response rating, Johnsongrass [10, 17] | Johnsongrass plant response rating [10, 18] | Johnsongrass plant response rating [10, 19]
55: Plant response rating, Crabgrass, Large [4, 15] | Plant response rating, Crabgrass, Large [4, 16]
85: Lambsquarters plant response rating [2, 12] | Lambsquarters plant response rating [2, 19] | Plant response rating, Waterhemp [9, 13]
98: Plant response rating, Galium [1, 13] | Plant response rating, Galium [1, 14] | Plant response rating, Lambsquarters [2, 13] | Plant response rating, Foxtail, Giant [3, 17] | Plant response rating, Crabgrass, Large [4, 17] | Barnyardgrass plant response rating [5, 18] | Plant response rating, Nutsedge, Yellow [7, 13] | Plant response rating, Nutsedge, Yellow [7, 14] | Plant response rating, Ragweed [8, 14] | Ragweed plant response rating [8, 18]
95: Galium plant response rating [1, 12] | Plant response rating, Galium [1, 15] | Galium plant response rating [1, 19] | Plant response rating, Foxtail, Giant [3, 14] | Crabgrass, Large plant response rating [4, 18] | Plant response rating, Barnyardgrass [5, 17] | Nutsedge, Yellow plant response rating [7, 18] | Nutsedge, Yellow plant response rating [7, 19] | Plant response rating, Ragweed [8, 13]
50: Plant response rating, Soybean (soybean (Glycine max); [13])
100: Plant response rating, Galium [1, 16] | Plant response rating, Galium [1, 17] | Galium plant response rating [1, 18] | Plant response rating, Lambsquarters [2, 14] | Plant response rating, Lambsquarters [2, 15] | Plant response rating, Lambsquarters [2, 16] | Plant response rating, Lambsquarters [2, 17] | Lambsquarters plant response rating [2, 18] | Plant response rating, Foxtail, Giant [3, 16] | Foxtail, Giant plant response rating [3, 18] | Plant response rating, Ragweed [8, 16] | Plant response rating, Ragweed [8, 17] | Plant response rating, Waterhemp [9, 14] | Plant response rating, Waterhemp [9, 16] | Plant response rating, Waterhemp [9, 17] | Waterhemp plant response rating [9, 18]
35: Plant response rating, Barnyardgrass [5, 15]
45: Plant response rating, Nutsedge, Yellow [7, 16]
65: Foxtail, Giant plant response rating [3, 19] | Plant response rating, Ragweed [8, 15] | Waterhemp plant response rating [9, 12] | Waterhemp plant response rating [9, 19] | Oilseed Rape plant response rating [11, 12] | Plant response rating, Oilseed Rape [11, 17] | Oilseed Rape plant response rating [11, 18]
30: Plant response rating, Nutsedge, Yellow [7, 15]
70: Plant response rating, Barnyardgrass [5, 16] | Plant response rating, Nutsedge, Yellow [7, 17] | Plant response rating, Oilseed Rape [11, 13] | Oilseed Rape plant response rating [11, 19]
0: Wheat plant response rating [6, 12] | Plant response rating, Wheat [6, 16] | Plant response rating, Wheat [6, 17] | Wheat plant response rating [6, 19] | Soybean plant response rating (soybean (Glycine max); [12]) | Plant response rating, Soybean (soybean (Glycine max); [16]) | Plant response rating, Soybean (soybean (Glycine max); [17]) | Soybean plant response rating (soybean (Glycine max); [18]) | Soybean plant response rating (soybean (Glycine max); [19]) | Plant response rating, Johnsongrass [10, 15] | Plant response rating, Johnsongrass [10, 16] | Plant response rating, Oilseed Rape [11, 15]

CC(=O)Oc1c(Cl)nn(C)c(=O)c1-c1c(C)sc2ccc(Cl)cc12 [Compound 116]
80: Plant response rating, Waterhemp [9, 17] | Plant response rating, Oilseed Rape [11, 16]
20: Plant response rating, Crabgrass, Large [4, 16]
0: Plant response rating, Crabgrass, Large [4, 15] | Plant response rating, Wheat [6, 15] | Plant response rating, Wheat [6, 16] | Plant response rating, Nutsedge, Yellow [7, 15] | Plant response rating, Soybean (soybean (Glycine max); [16]) | Plant response rating, Soybean (soybean (Glycine max); [17]) | Plant response rating, Johnsongrass [10, 15] | Plant response rating, Johnsongrass [10, 16] | Plant response rating, Johnsongrass [10, 17]
100: Plant response rating, Galium [1, 17] | Galium plant response rating [1, 18] | Ragweed plant response rating [8, 18] | Waterhemp plant response rating [9, 18] | Oilseed Rape plant response rating [11, 18]
5: Plant response rating, Barnyardgrass [5, 15] | Plant response rating, Wheat [6, 17] | Soybean plant response rating (soybean (Glycine max); [18])
90: Plant response rating, Lambsquarters [2, 17] | Crabgrass, Large plant response rating [4, 18] | Plant response rating, Ragweed [8, 16]
50: Plant response rating, Crabgrass, Large [4, 17]
85: Plant response rating, Galium [1, 16] | Plant response rating, Nutsedge, Yellow [7, 17] | Plant response rating, Ragweed [8, 15] | Plant response rating, Oilseed Rape [11, 15]
60: Plant response rating, Galium [1, 15]
35: Plant response rating, Nutsedge, Yellow [7, 16]
55: Plant response rating, Waterhemp [9, 15]
30: Plant response rating, Barnyardgrass [5, 16]
65: Plant response rating, Lambsquarters [2, 15]
10: Johnsongrass plant response rating [10, 18]
95: Lambsquarters plant response rating [2, 18] | Barnyardgrass plant response rating [5, 18] | Nutsedge, Yellow plant response rating [7, 18] | Plant response rating, Ragweed [8, 17] | Plant response rating, Oilseed Rape [11, 17]
70: Plant response rating, Barnyardgrass [5, 17] | Plant response rating, Waterhemp [9, 16]
15: Wheat plant response rating [6, 18]
98: Plant response rating, Lambsquarters [2, 16]
